Earlier results on one compound are cited in patent US20140271890A1, “CONTROLLED-RELEASE PHARMACEUTICAL COMPOSITION” (priority 2013, published 2014).

The conditions of this data set: mean dose between 5 and 10 mg in a conventional formulation.

For the compound `Cc1ccc(-c2nc3ccc(C)cn3c2CC(=O)N(C)C)cc1` [Zolpidem], the duration of action entry is “up to 6 hours”.
